Measured values reported in PubChem BioAssay (NCI).
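Briefly, cells in 96-well plates were exposed to five compound concentrations for 48 h, and endpoints were estimated by linear interpolation. GI50: concentration for 50% inhibition of growth. TGI: concentration producing complete growth inhibition.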

Legend:
Experiment in all cases: inhibition of tumour cell growth, NCI panel, 48 h
[1] = test system: SNB-19 CNS
[2] = test system: SF-295 CNS
[3] = test system: NCI-H522 lung
[4] = test system: RPMI-8226 leukemia
[5] = test system: DU-145 prostate
[6] = test system: OVCAR-4 ovarian
[7] = test system: HCT-15 colon
[8] = test system: LOX IMVI melanoma
[9] = test system: OVCAR-8 ovarian
[10] = test system: COLO 205 colon
[11] = test system: A549 NSCLC
[12] = test system: SF-539 CNS
[13] = test system: IGROV1 ovarian
[14] = test system: SN12C renal
[15] = test system: T-47D breast
[16] = test system: NCI-H226 lung
[17] = test system: SW-620 colon
[18] = test system: UACC-62 melanoma
[19] = test system: MCF7 breast
[20] = test system: SK-MEL-2 melanoma
[21] = test system: NCI-H460 lung
[22] = test system: HOP-62 NSCLC
[23] = test system: BT-549 breast
[24] = test system: U251 CNS
[25] = test system: OVCAR-5 ovarian
[26] = test system: HCC-2998 colon
[27] = test system: PC-3 prostate
[28] = test system: HCT-116 colon
[29] = test system: SNB-75 CNS
[30] = test system: ACHN renal
[31] = test system: SK-OV-3 ovarian
[32] = test system: UO-31 renal
[33] = test system: 786-0 renal
[34] = test system: HT29 colon
[35] = test system: SK-MEL-5 melanoma
[36] = test system: MOLT-4 leukemia
[37] = test system: SK-MEL-28 melanoma
[38] = test system: HS 578T breast
[39] = test system: TK-10 renal
[40] = test system: M14 melanoma
[41] = test system: SF-268 CNS
[42] = test system: OVCAR-3 ovarian
[43] = test system: KM12 colon
[44] = test system: K-562 leukemia
[45] = test system: UACC-257 melanoma
[46] = test system: RXF 393 renal
[47] = test system: NCI/ADR-RES ovarian
[48] = test system: EKVX NSCLC
[49] = test system: MDA-MB-435
[50] = test system: NCI-H23 lung
[51] = test system: CCRF-CEM leukemia
[52] = test system: MDA-MB-231 breast
[53] = test system: A498 renal
[54] = test system: MALME-3M melanoma
[55] = test system: CAKI-1 renal

Cc1cnc2[nH]c(-c3ccc4ccccc4c3)cc(=O)c2c1 was tested, and the TGI [1] was > 100 µM, the GI50 [2] was 0.549 µM and the TGI [2] was > 100 µM. The TGI [3] was 2.25 µM, the TGI [4] was > 100 µM and the TGI [5] was 27.9 µM. The TGI [6] was > 100 µM, the TGI [7] was 21.7 µM and the TGI [8] was > 100 µM. The TGI [9] was > 100 µM, the TGI [10] was 18.6 µM and the TGI [11] was > 100 µM. The TGI [12] was 9.07 µM, the TGI [13] was > 100 µM and the TGI [14] was > 100 µM. For the same molecule, the TGI [15] was > 100 µM, the TGI [16] was > 100 µM and the TGI [17] was > 100 µM. For the same molecule, the TGI [18] was > 100 µM, the TGI [19] was 8.68 µM and the TGI [20] was > 100 µM. The GI50 [21] was 0.394 µM, the TGI [21] was > 100 µM and the TGI [22] was > 100 µM. For the same molecule, the TGI [23] was > 100 µM, the GI50 [24] was 0.464 µM and the TGI [24] was > 100 µM. For the same molecule, the TGI [25] was > 100 µM, the TGI [26] was > 100 µM and the GI50 [27] was 0.404 µM. The TGI [27] was > 100 µM, the GI50 [28] was 0.465 µM and the TGI [28] was 14.5 µM. The TGI [29] was > 100 µM, the TGI [30] was > 100 µM and the TGI [31] was > 100 µM. For the same molecule, the TGI [32] was > 100 µM, the TGI [33] was > 100 µM and the TGI [34] was > 100 µM. For the same molecule, the GI50 [35] was 0.359 µM, the TGI [35] was > 100 µM and the TGI [36] was > 100 µM. The TGI [37] was > 100 µM, the TGI [38] was > 100 µM and the TGI [39] was > 100 µM. The TGI [40] was > 100 µM, the TGI [41] was > 100 µM and the GI50 [42] was 0.352 µM. The TGI [42] was 10.6 µM and the TGI [43] was > 100 µM.

In the case of CCOc1ccc(N/C(=C(/C(Cl)=C(/Cl)NC(C)(C)C)[N+](=O)[O-])n2nnc3ccccc32)cc1, the TGI [1] is reported as > 100 µM, the TGI [2] is reported as 78.8 µM and the TGI [4] is reported as > 100 µM. The TGI [6] was > 100 µM, the TGI [7] was 39 µM and the TGI [44] was > 100 µM. For the same molecule, the TGI [9] was 32.3 µM, the TGI [10] was 36.1 µM and the TGI [11] was > 100 µM. The TGI [12] was 57.6 µM, the TGI [45] was > 100 µM and the TGI [46] was 41.8 µM. For the same molecule, the TGI [14] was > 100 µM, the TGI [15] was 32 µM and the TGI [47] was > 100 µM. For the same molecule, the TGI [16] was > 100 µM, the TGI [48] was > 100 µM and the TGI [49] was 33.6 µM. The TGI [17] was 41.9 µM, the TGI [18] was 65.3 µM and the TGI [19] was 65.1 µM. The TGI [50] was 55.6 µM, the TGI [20] was > 100 µM and the TGI [21] was > 100 µM. For the same molecule, the TGI [22] was > 100 µM, the TGI [23] was 41.5 µM and the TGI [24] was 35.1 µM. For the same molecule, the TGI [25] was > 100 µM, the TGI [26] was > 100 µM and the TGI [27] was 83.5 µM. For the same molecule, the TGI [51] was > 100 µM, the TGI [52] was 37.6 µM and the TGI [28] was 33.7 µM. The TGI [29] was 54 µM, the TGI [30] was > 100 µM and the TGI [31] was > 100 µM. For the same molecule, the TGI [32] was > 100 µM, the TGI [53] was > 100 µM and the TGI [33] was 36.7 µM. For the same molecule, the TGI [34] was > 100 µM, the TGI [54] was 33.3 µM and the TGI [36] was > 100 µM. The TGI [37] was 38.8 µM, the TGI [38] was 32.6 µM and the TGI [40] was > 100 µM. It also gave a TGI [55] of 35.3 µM, a TGI [41] of 42.7 µM and a TGI [42] of 72.2 µM. For the same molecule, the TGI [43] was 61.7 µM.
